Experimental data from US8129349B2, “Treatment of disease by inducing cell apoptosis” (The Regents of the University of California, priority 2000, dated 2012).
Non-standard residues stand in square brackets, D forms with d. pT = C[C@@H](OP(=O)(O)O)[C@H](N)C(=O)O

Legend:
C/EBPβ+/+ stellate cells = experiment: Annexin-V-PE assay of stellate cells treated with lactacystin; type: cell-based, mouse; details: lactacystin 0-30 μM, 6 hours after treatment began
Experimental: (§1) FIG. 7 provides data showing that phosphorylation of rat C/EBPβ on Ser^105 prevents stellate cell apoptosis. Panel A provides results for mouse stellate cells transfected as described herein (See, FIG. 2), with mutant p90RSK or treated with lactacystin (10 μM) (closed bars), and co-transfected with CMV-rC/EBPβ-Asp^105 (1 μg each) (open bars) as indicated. Annexin-V-PE binding was determined as described for FIG. 2 (P<0.05 for rC/EBPβ-Asp^105). Panel B provides results of an annexin-V-PE assay for stellate cells from C/EBPβ^+/+ (closed circles) and rC/EBPβ-Asp^105 transgenic (open circles) mice treated with lactacystin (0-30 μM). The annexin-V-PE assay was performed 6 hours after treatment began (P<0.05 for rC/EBPβ-Asp^105 transgenic mice for 5-25 μM lactacystin). Panel C provides results for rC/EBPβ-HA constructs (0.3 μg) transfected into rat stellate cells. The expressed peptides were immunoprecipitated with anti-HA antibodies. Using a specific antibody, rCEBPβ-PSer^105 was detected only in cells that expressed wild-type rC/EBPβ. […] Reciprocal immunoprecipitations confirmed these associations. […] Enzyme activity was measured using a colorimetric substrate as described in the Examples. […]

caspase 1 = target: T1, caspase 1 (Homo sapiens, UniProt P29466); experiment: In vitro self-activation of recombinant caspase 1; type: biochemical; details: peptides 200 μM, 2 h, procaspase 1 (1U)
T1 construct: purchased Alexis Biochemicals 201-056
T1 sequence (P29466 120-404): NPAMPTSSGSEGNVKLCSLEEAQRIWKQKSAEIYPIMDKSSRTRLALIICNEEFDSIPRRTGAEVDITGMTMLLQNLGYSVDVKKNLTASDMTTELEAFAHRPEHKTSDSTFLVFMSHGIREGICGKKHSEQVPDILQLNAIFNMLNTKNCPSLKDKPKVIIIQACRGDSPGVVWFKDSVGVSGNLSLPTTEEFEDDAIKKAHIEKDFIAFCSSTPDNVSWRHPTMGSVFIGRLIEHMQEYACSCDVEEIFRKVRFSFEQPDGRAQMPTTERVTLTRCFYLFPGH
Experimental: (§2) FIG. 5 provides results showing the direct association of C/EBPβ-Glu^217 with procaspases 1 and 8. […] Enzyme activity was measured in the absence (control) or presence of C/EBPβ peptides (200 μM) for 2 h, using a procaspases 1 (1U) (not shown) and 8 (0.2 μg) activity assay. Values are presented as the mean±one half the range of duplicates. Panel C provides results for cells cultured on a collagen type I matrix and incubated with the indicated cell permeant, purified synthetic N-acetyl, C-aldehyde C/EBPβ tetra-peptides (10 μM) or with recombinant C/EBPβ-HA peptides as indicated, together with the Chariot reagent (Active Motif) for 4 h. Control cells were incubated without peptides (P<0.05 for all peptides containing Ala^217).
(§3) Purified recombinant C/EBPβ peptides, expressed as known in the art (See, Descombes et al., supra; and Buck et al. (1994), supra), and purified synthetic N-acetyl, C-aldehyde tetrapeptides (200 μM) (American Peptide Company) were assayed for their ability to inhibit the activity of purified human recombinant caspases 1 (catalogue # 201-056) and 8 (catalogue # 201-041-C005) (Alexis Biochemicals). The sequence of caspase 8 includes Ser217 through Asp479 cloned into an expression vector containing a 21 amino acid linker at the N-terminus. Thus, the prodomain (first 220 amino acids) is essentially missing. […] Caspase activity was determined by the release of the p-nitroaniline colorimetric (Alexis Biochemicals) substrate for caspase 1 (catalogue # 260-026) or 8 (catalogue # 260-045) within the linear part of the kinetic assay (Thornberry et al. (1997), supra; Stennicke and Salvesen, supra). […]
To delineate the role of C/EBPβ on the activation of procaspases 1 and 8, the self-activation of recombinant procaspases 1 and 8 was induced in vitro (Wilson et al., supra; Margolin et al., supra; and Earnshaw et al., supra), and the effect of purified recombinant C/EBPβ peptides, produced as described previously (Descombes et al., supra; and Buck et al., (1994), supra) on this process was determined. […]

caspase 8 = target: T2, caspase 8 (Homo sapiens, UniProt Q14790); experiment: In vitro self-activation of recombinant caspase 8; type: biochemical; details: peptides 200 μM, 2 h, procaspase 8 (0.2 μg), colorimetric substrate
T2 construct: 21 amino acid linker (vector-derived) (N); purchased Alexis Biochemicals 201-041-C005
T2 sequence (Q14790 217-479): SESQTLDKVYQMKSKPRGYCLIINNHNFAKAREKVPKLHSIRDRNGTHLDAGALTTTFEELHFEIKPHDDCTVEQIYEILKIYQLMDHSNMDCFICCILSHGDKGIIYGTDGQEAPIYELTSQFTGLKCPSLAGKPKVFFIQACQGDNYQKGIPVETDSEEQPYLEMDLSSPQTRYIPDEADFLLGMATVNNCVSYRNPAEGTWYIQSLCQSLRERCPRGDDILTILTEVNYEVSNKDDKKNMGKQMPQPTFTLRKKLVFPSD
Experimental: as §2, §1
as §3, with “Biochemicals).” for “Biochemicals). The sequence of caspase 8 includes Ser217 through Asp479 cloned into an expression vector containing a 21 amino acid linker at the N-terminus. Thus, the prodomain (first 220 amino acids) is essentially missing.”

hepatic stellate cells = experiment: Apoptosis of stellate cells on collagen type I incubated with cell permeant peptides; type: cell-based, mouse; details: collagen type I matrix, tetrapeptides 10 μM, Chariot reagent, 4 h
Experimental: as §2, with “Ala^217). […]” for “Ala^217).”
Fluorescent labels were observed using a triple-channel fluorescence microscope. […] The number of annexin V (+) cells was determined by in vivo microscopy as known in the art (See, Rudel and Bokoch, supra) among all cells or those expressing the GFP indicator protein either co-transfected with C/EBPβ proteins, or alone. […] At least 1000 cells were analyzed per experimental point, including at least 100 cells expressing the transfected DNA (Buck and Chojkier, EMBO J., 15:1753-1765 (1996); Buck et al., (1994), supra; and Buck et al., (1999), supra). […] Nuclear morphology was analyzed by staining cells with Hoechst 33342 (Molecular Probes). […]

[1] = system: stellate cells from C/EBPβ−/− mice; experiment: Rescue from apoptosis of stellate cells from C/EBPβ−/− mice by cell permeant tetrapeptides; type: cell-based, mouse; details: C/EBPβ−/− cells activated by collagen type I, tetrapeptides 10 μM, Chariot reagent, 4 hours
procaspase 8 = procaspase 8 (Homo sapiens, UniProt Q14790); details: cited from earlier work
Chain of procaspase 8 (Q14790 whole entry): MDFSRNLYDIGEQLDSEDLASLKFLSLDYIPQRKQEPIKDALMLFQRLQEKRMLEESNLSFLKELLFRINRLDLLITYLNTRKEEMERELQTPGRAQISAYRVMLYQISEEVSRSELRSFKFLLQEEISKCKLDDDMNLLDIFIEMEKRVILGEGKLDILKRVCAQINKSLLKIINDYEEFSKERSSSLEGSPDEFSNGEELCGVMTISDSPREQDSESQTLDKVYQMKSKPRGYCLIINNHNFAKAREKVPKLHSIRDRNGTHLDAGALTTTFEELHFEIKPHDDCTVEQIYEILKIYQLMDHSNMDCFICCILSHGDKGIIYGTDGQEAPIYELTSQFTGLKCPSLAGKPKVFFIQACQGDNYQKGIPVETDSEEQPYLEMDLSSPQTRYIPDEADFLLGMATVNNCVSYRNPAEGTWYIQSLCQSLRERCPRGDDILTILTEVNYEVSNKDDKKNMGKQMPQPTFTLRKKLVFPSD

[2] = system: C/EBPβ-Ala^217 stellate cells; experiment: Apoptosis of stellate cells from C/EBPβ-Ala^217 transgenic mice, Hoechst 33342 nuclear staining; type: cell-based, mouse; details: collagen type I; IETD or transfection 1 μg
Experimental: FIG. 2 provides results showing increased apoptosis in hepatic stellate cells from C/EBPβ^−/− and C/EBPβ-Ala^217 transgenic mice. […] Six hours after cultivation, an annexin-V-PE binding assay was performed (P<0.05 for C/EBPβ^−/− and C/EBPβ-Ala^217). […] Apoptotic cells are indicated with arrowheads.
Fluorescent labels were observed using a triple-channel fluorescence microscope. The fluorochromes utilized were FITC and Texas red (Molecular Probes). The number of annexin V (+) cells was determined by in vivo microscopy as known in the art (See, Rudel and Bokoch, supra) among all cells or those expressing the GFP indicator protein either co-transfected with C/EBPβ proteins, or alone. These values are reported herein as a percentage of annexin V (+) for cells expressing the transfected DNA. At least 1000 cells were analyzed per experimental point, including at least 100 cells expressing the transfected DNA (Buck and Chojkier, EMBO J., 15:1753-1765 (1996); Buck et al., (1994), supra; and Buck et al., (1999), supra). […] Nuclear morphology was analyzed by staining cells with Hoechst 33342 (Molecular Probes). […]

For `CC(=O)N[C@@H](CSC(=O)[C@]1([C@@H](O)C(C)C)NC(=O)[C@H](C)[C@@H]1O)C(=O)O` [Lactacystin, lactacystin], the Stellate cell apoptosis (C/EBPβ+/+ stellate cells) was “significant and rapid increase”.
For “Ac-K-Phospho-T^217VD-CHO (Ac-K[pT]VD-aldehyde; SMILES CC(=O)N[C@@H](CCCCN)C(=O)N[C@H](C(=O)N[C@H](C(=O)N[C@H](C=O)CC(=O)O)C(C)C)[C@@H](C)OP(=O)(O)O) [synthetic N-acetyl, C-aldehyde C/EBPβ 216-219-PThr^217 tetrapeptide]”, the “Inhibition of in vitro self-activation of caspase 1” value (caspase 1) was “inhibited the in vitro self-activation” and the “Inhibition of in vitro self-activation of caspase 8” value (“Inhibition … of caspase 8” for short) (caspase 8) was “inhibited the in vitro self-activation”.
With Ac-KA^217VD-CHO the “Induction of apoptosis of stellate cells” value (hepatic stellate cells) was “induced apoptosis”.
With “Ac-KE^217VD-CHO (Ac-KEVD-aldehyde; SMILES CC(=O)N[C@@H](CCCCN)C(=O)N[C@@H](CCC(=O)O)C(=O)N[C@H](C(=O)N[C@H](C=O)CC(=O)O)C(C)C) [cell permeant synthetic N-acetyl, C-aldehyde tetrapeptide, phosphorylation mimic domain of C/EBPβ]” the “Inhibition of in vitro self-activation of caspase 1” value (caspase 1) was “inhibited the in vitro self-activation”, the “Inhibition … of caspase 8” value (caspase 8) was “inhibited the in vitro self-activation” and the “Rescue of stellate cells from apoptosis” value [1] was “rescued these cells from apoptosis”.
In the case of “Ac-KKPD^105-CHO (Ac-KKPD-aldehyde; SMILES CC(=O)N[C@@H](CCCCN)C(=O)N[C@@H](CCCCN)C(=O)N1CCC[C@H]1C(=O)N[C@H](C=O)CC(=O)O) [cell permeant synthetic N-acetyl, C-aldehyde tetrapeptide, phosphorylation mimic domain of rC/EBPβ]”, the “Inhibition … of caspase 8” value (caspase 8) is reported as “inhibited the in vitro self-activation” and the “Rescue of stellate cells from apoptosis” value [1] is reported as “rescued these cells from apoptosis”.
In the case of DEVD-CHO, the Ki (procaspase 8) is listed as 12 nM.
For IETD [reference compound], the “Block of apoptosis of C/EBPβ-Ala^217 stellate cells” value [2] was “blocked”.
